The values below come from patent US7060824B2, “Pyrrolotriazolopyrimidinone derivatives” (Almirall Prodesfarma, S.A., priority 2000, dated 2006).

In the assay the target is T1, cyclic GMP specific phosphodiesterase (PDE 5) (Homo sapiens, UniProt O76074).
T1 construct: was isolated from human platelet lysates by ion exchange chromatography using a Mono-Q column; from tissue; host or cells: human platelets (lysate, Mono-Q ion exchange fraction)
Briefly: PDE 5 inhibition, enzyme isolated from human platelet lysates, [3H]-cyclic GMP substrate. The note with it: enzyme from human platelet lysates (Mono-Q); 0.25 mM [3H]-cyclic GMP as substrate; read-out: IC50 PDE5. It is filed as biochemical. How it is done: The cyclic GMP specific phosphodiesterase (PEE 5) was isolated from human platelet lysates by ion exchange chromatography using a Mono-Q column. The enzyme activity was determined using 0.25 mM [3H]-cyclic GMP as substrate. The purification of the enzyme and the assessment of the PDE 5 inhibitory activity of our compounds were performed essentially as described by Gristwood et al., Br. J. Pharmacol. 1992, 105, 985–991.
Turning to `CCCOc1ccc(S(=O)(=O)N2CCN(CCO)CC2)cc1-c1[nH]c2c(c1Br)n(CCC)c(=O)n1cnnc21` [Example 73, 7-Bromo-8-{5-[4-(2-hydroxyethyl)piperazine-1-sulfonyl]-2-propoxyphenyl}-6-propyl-6,9-dihydro-5H-pyrrolo[2,3-e][1,2,4]triazolo[4,3-c]pyrimidine-5-one], the IC50 was 0.33 nM. As to `CCCn1c(=O)n2cnnc2c2[nH]c(-c3cc(S(=O)(=O)N4C[C@@H]5C[C@H]4CN5C)ccc3OCC)c(Cl)c21` [Example 79, 7-Chloro-8-[2-ethoxy-5-((1S, 4S)-5-methyl-2,5-diazabicyclo[2.2.1]heptane-2-sulfonyl)phenyl]-6-propyl-6,9-dihydro-5H-pyrrolo[2,3-e][1,2,4]triazolo[4,3-c]pyrimidine-5-one], the half-inhibitory concentration (IC50) worked out at 0.19 nM.

`CCCn1c(=O)n2cnnc2c2[nH]c(-c3cc(S(=O)(=O)N4CCN(CCOCC)CC4)ccc3OCC)c(Cl)c21` [Example 24, 7-Chloro-8-{2-ethoxy-5-[4-(2-ethoxyethyl)piperazine-1-sulfonyl]phenyl}-6-propyl-6,9-dihydro-5H-pyrrolo[2,3-e][1,2,4]triazolo[4,3-c]pyrimidine-5-one]: the IC50 was found to be 0.042 nM. As for `CCCOc1ccc(S(=O)(=O)N2CCNCC2)cc1-c1[nH]c2c(c1Br)n(CCC)c(=O)n1cnnc21` [Example 74, 7-Bromo-8-[5-(piperazine-1-sulfonyl)-2-propoxyphenyl]-6-propyl-6,9-dihydro-5H-pyrrolo[2,3-e][1,2,4]triazolo[4,3-c]pyrimidine-5-one], the IC50 came out at 0.25 nM. In the case of `CCCOc1ccc(S(=O)(=O)N2CCN(CCCO)CC2)cc1-c1[nH]c2c(c1Cl)n(CCC)c(=O)n1cnnc21` [Example 34, 7-Chloro-8-{5-[4-(3-hydroxypropyl)piperazine-1-sulfonyl)-2-propoxyphenyl]-6-propyl-6,9-dihydro-5H-pyrrolo[2,3-e][1,2,4]triazolo[4,3-c]pyrimidine-5-one], the IC50 is 0.22 nM.

`C=CCN1CCN(S(=O)(=O)c2ccc(OCCC)c(-c3[nH]c4c(c3Cl)n(CCC)c(=O)n3cnnc43)c2)CC1` [Example 45, 8-[5-(4-Allylpiperazine-1-sulfonyl)-2-propoxyphenyl]-7-chloro-6-propyl-6,9-dihydro-5H-pyrrolo[2,3-e][1,2,4]triazolo[4,3-c]pyrimidine-5-one]: the IC50 amounted to 0.21 nM. Take `CCCOc1ccc(S(=O)(=O)N2CCCN(CCO)CC2)cc1-c1[nH]c2c(c1Br)n(CCC)c(=O)n1cnnc21` [Example 71, 7-Bromo-8-(5-[4-(2-Hydroxyethyl)-[1,4]diazepane-1-sulfonyl]-2-propoxyphenyl}-6-propyl-6,9-dihydro-5H-pyrrolo[2,3-e][1,2,4]triazolo[4,3-c]pyrimidine-5-one]: the IC50 was 0.12 nM. `CCCn1c(=O)n2cnnc2c2[nH]c(-c3cc(S(=O)(=O)N4CCN5CCC[C@H]5C4)ccc3OCC)c(Cl)c21` [Example 75, 7-Chloro-8-[2-ethoxy-5-((S)-hexahydropyrrolo[1,2-a]pyrazine-2-sulfonyl)phenyl]-6-propyl-6,9-dihydro-5H-pyrrolo[2,3-e][1,2,4]triazolo[4,3-c]pyrimidine-5-one]: the IC50 worked out at 0.19 nM. Consider `CCCOc1ccc(S(=O)(=O)NC2CC(C)(C)NC(C)(C)C2)cc1-c1[nH]c2c(c1Cl)n(CCC)c(=O)n1cnnc21` [Example 41, 3-(7-Chloro-5-oxo-6-propyl-6,9-dihydro-5H-pyrrolo[2,3-e][1,2,4]triazolo[4,3-c]pyrimidin-8-yl)-4-propoxy-N-(2,2,6,6-tetramethylpiperidin-4-yl)benzenesulfonamide], for which the IC50 amounted to 0.17 nM. Take `CCCOc1ccc(S(=O)(=O)NCCO)cc1-c1[nH]c2c(c1Cl)n(CCC)c(=O)n1cnnc21` [Example 50, 3-(7-Chloro-5-oxo-6-propyl-6,9-dihydro-5H-pyrrolo[2,3-e][1,2,4]triazolo[4,3-c]pyrimidin-8-yl)-N-(2-hydroxyethyl)-4-propoxybenzenesulfonamide]: the IC50 worked out at 0.15 nM. As to `CCCn1c(=O)n2cnnc2c2[nH]c(-c3cc(S(=O)(=O)N4CCCN(C)CC4)ccc3OCC)c(Cl)c21` [Example 11, 7-Chloro-8-[2-ethoxy-5-(4-methyl-[1,4]diazepane-1-sulfonyl)phenyl]-6-propyl-6,9-dihydro-5H-pyrrolo[2,3-e][1,2,4]triazolo[4,3-c]pyrimidine-5-one], the IC50 came to 0.099 nM. As for `CCCOc1ccc(S(=O)(=O)N2CCN(C)CC2)cc1-c1[nH]c2c(c1Br)n(CCC)c(=O)n1cnnc21` [Example 58, 7-Bromo-8-[5-(4-methylpiperazine-1-sulfonyl)-2-propoxyphenyl]-6-propyl-6,9-dihydro-5H-pyrrolo[2,3-e][1,2,4]triazolo[4,3-c]pyrimidine-5-one], the IC50 stood at 0.3 nM.
